Here are results for five compounds from PMC8653149, “Cyclic Analogs of Desferrioxamine E Siderophore for ^68Ga Nuclear Imaging: Coordination Chemistry and Biological Activity in Staphylococcus aureus” (Inorganic Chemistry, 2021).

The nature of data set [1]: Ga(III) complex stability constants by Fe(III)–Ga(III) metal–metal competition, potentiometric and UV–vis pH-metric titrations. In kind it is physicochemical. The following applies: for pKNHOH (pK of [GaL] formation from [GaHL]+): T = 25 °C; for pKNHOH (pK of [GaL] formation from [GaHL]+) / logβ[GaHL]+ / logβ[GaL]: I = 0.1 M NaClO4; for pGa(III): calculated, pH 7.4; for logβ[GaHL]+: competition UV-Vis titrations; for logβ[GaHL]+ / logβ[GaL]: M:L 1:1, T = 25°C. From the text: The next step was to determine the coordination specificity of investigated ligands toward Ga(III) ions. This is a somewhat challenging task because it requires indirect methods since the investigated complexes started to form in a very acidic environment, where potentiometric measurements were not accurate owing to the error of the glass electrode,[55],[56] and gallium is spectroscopically silent in UV–vis. To bypass this inconvenience, we implemented metal–metal competition assays. After addition of a significant molar excess of Ga(III), the LMCT band of Fe(III)-FOXE analog complexes was almost fully silenced as Ga(III) replaced Fe(III) in its complexes (Figure S5). By implementing those spectral changes, we were able to calculate the stability constants of the Ga(III)-FOXE analog species present below or around pH 2, [GaHL]^+ (Table S8). Stability constants for the [GaL] species, present above pH 2, could be determined by potentiometric titrations for Ga(III)-FOX 2-2, 2-3, 2-4, and 3-5, with logβ of [GaHL]^+ fixed in the calculations (Table S8). For Ga(III)-FOX 2-5, we could not observe any deprotonation step using this methodology. To confirm this behavior, UV–vis titration of the Ga(III)-FOX 2-5 analog complex was performed in the 200–300 nm spectral range (Figure S6) corresponding to the hydroxamate groups’ protonation state.[57]−[59] […] Above pH 4, there were no significant changes in maxima localization or absorbance intensity. Above pH 9, absorbance started to rise again, which indicated complex dissociation. […] Overall, the data indicated a decreased stability of [GaL] species when decreasing or increasing the ring size of Ga(III)-FOX 2-5, as reflected by pKNHOH (Table S8). Implementing this full coordination specification of Ga(III)-FOX complexes, we were able to calculate speciation plots which are presented in Figure 1 for the most efficient analogs FOX 2-4 and FOX 2-5, given here as examples, and in Figure S7 for others.
Proposed biomimetic analogs of cyclic siderophore FOXE bind Fe(III) ions starting from pH around 0, and the complexation is essentially complete far below or around pH of 2. Therefore, the stability constants of the first species formed in solution were determined from the spectrophotometric pH-dependent batch titrations carried out in the pH range of around 0.1–2 (Figure S3), by following the changes in the intense LMCT band of the metal complex. These values were further used as constant values in spectrophotometric or potentiometric titrations carried out in the pH range from 2 to 11 (Figure S3) to get the overall stability constants, logβFeL (Table S5). Since Ga(III)-FOX complexes present similar coordination properties, the first species start to form below pH 2 as well. However, in this case, we have used indirect methods to determine stability constants for Ga(III)-FOXE analogs and the Ga(III) complex with native FOXE, as Ga(III) complexes are spectroscopically silent in the UV–vis region. Metal–metal competition titrations were carried out at pH 1.6 for FOX 2-5 and FOX 2-4 and at pH 2 for the rest of the analogs and the native compound. The intense LMCT band of the Fe(III) complex was silenced after addition of a fixed volume of Ga(III) ions (Figure S5).
Potentiometric titrations were performed using an automatic titrator system Titrando 905 (Metrohm) equipped with a 800 Dosino dosing unit and a microburet with a volume of 2 mL. A combined glass electrode was calibrated each day for hydrogen ion concentration by 0.1 M HClO4 with CO2-free 0.1 M NaOH solutions. A stream of high purity grade argon, presaturated with water vapor, passed over the surface of the solution cell, filled with 3 mL of the studied solution. For each system, a minimum of four independent titrations was performed. […]

Data set [2] is described as follows: Fe(III) complex stability constants by potentiometric and pH-dependent UV–vis titrations. It counts as physicochemical. The following applies: calculated for [L] = 1 × 10^–4, [M] = 1 × 10^–5 at pH 7.4. Here is the method:
Therefore, the stability constants of the first species formed in solution were determined from the spectrophotometric pH-dependent batch titrations carried out in the pH range of around 0.1–2 (Figure S3), by following the changes in the intense LMCT band of the metal complex. These values were further used as constant values in spectrophotometric or potentiometric titrations carried out in the pH range from 2 to 11 (Figure S3) to get the overall stability constants, logβFeL (Table S5). […] Metal–metal competition titrations were carried out at pH 1.6 for FOX 2-5 and FOX 2-4 and at pH 2 for the rest of the analogs and the native compound.
Potentiometric titrations were performed using an automatic titrator system Titrando 905 (Metrohm) equipped with a 800 Dosino dosing unit and a microburet with a volume of 2 mL. A combined glass electrode was calibrated each day for hydrogen ion concentration by 0.1 M HClO4 with CO2-free 0.1 M NaOH solutions. A stream of high purity grade argon, presaturated with water vapor, passed over the surface of the solution cell, filled with 3 mL of the studied solution. For each system, a minimum of four independent titrations was performed. The purity of ligand and accurate concentration of ligand solution were determined before each experiment with the Gran method[68] by potentiometric titration of the 3 mL sample of the ligand, with [L] ∼ 1 × 10^–3 M. In separate potentiometric titrations, the metal-to-ligand ratio was 1:1, and the concentration of metal was 2 × 10^–3 M. The potentiometric data were refined to obtain the overall Fe(III)-FOXE and Ga(III)-FOXE derivative binding constants (logβFe(III)L, logβGa(III)L).
The absorption measurements (200 nm–800 nm) were performed on a Varian Cary 300 Bio UV–visible spectrophotometer. The solutions were measured in high precision Quartz […] cuvettes (1 and 3 mL) with 1 cm lightpath (Hellma).
Two series of experiments were performed: (i) in the pH range of 0.1–2 and (ii) between pH 2 and 11. In the first series of experiments, (i) the stock solution of the ligand was divided into various batches followed by Fe(III) addition, with a constant total volume of 2 mL, [Fe(III)] = 2 × 10^–4 M, and a metal-to-ligand molar ratio of 1:1. The pH was controlled by concentration of the perchloric acid. After preparation, each solution was allowed to equilibrate for 1 h at 25 °C, and then its UV–vis spectrum was recorded.
The experimental sets with over 140 points collected in the pH range 2–11 for a single potentiometric measurement were imported to the […] software,[69] which uses nonlinear least-squares methods for data treatment. Spectroscopic data were refined using SPECFIT/32 software, which uses factor analysis to reduce the absorbance matrix and to extract the eigenvalues prior to the multiwavelength fit of the reduced data set according to the Marquardt algorithm and adjusts the absorptivity and the stability constants of the species formed at equilibrium.[70]−[72] Standard deviation was used for the calculation of the uncertainties in logβ. Speciation plots were prepared using HYSS software,[73] implementing data gathered in Tables S4, S5, and S8. Raw data was processed using Origin 7.0.

[3] abbreviates: potentiometric, [L] = 1·10^-3 M.

The structures appear in SMILES notation.

With `O=C1CCCN(O)C(=O)CCNC(=O)CCCN(O)C(=O)CCNC(=O)CCCN(O)C(=O)CCN1` [FOX 2-3], in data set [1], the “pKNHOH (pK of [GaL] formation from [GaHL]+)” value (“pKNHOH” below) was found to be 2.28 and the “pGa(III)” value is given as 20.8. For the same compound, in data set [1] ([L] = 1·10^-4 M), the “logβ[GaHL]+” value is 28.30 (4). Moreover, in data set [1] (setting [3]), the “logβ[GaL]” value was 26.02 (1). In data set [2], the “pFe(III)” value is on record as 22.7.
As to `O=C1CCCCN(O)C(=O)CCNC(=O)CCCCN(O)C(=O)CCNC(=O)CCCCN(O)C(=O)CCN1` [FOX 2-4], in data set [1], the “pKNHOH” value was found to be 2.56 and the “pGa(III)” value is given as 21.8. The “logβ[GaHL]+” value in data set [1] ([L] = 1·10^-4 M) is reported as 28.84 (5). Further, in data set [1] (setting [3]), the “logβ[GaL]” value is reported as 26.28 (1). Besides, in data set [2], the “pFe(III)” value is 24.3.
`O=C1CCCCCN(O)C(=O)CCNC(=O)CCCCCN(O)C(=O)CCNC(=O)CCCCCN(O)C(=O)CCN1` [FOX 2-5]: the “logβ[GaL]” value in data set [1] (UV-Vis (metal–metal competition) titrations, [L] = 1·10^-4 M) was 29.52 (6). Also, in data set [1], the “pGa(III)” value is on record as 25.2. Moreover, the “pFe(III)” value in data set [2] is recorded as 27.0.
Take `O=C1CCCCCN(O)C(=O)CCCNC(=O)CCCCCN(O)C(=O)CCCNC(=O)CCCCCN(O)C(=O)CCCN1` [FOX 3-5]: in data set [1], the “pKNHOH” value is listed as 2.87 and the “pGa(III)” value is reported as 22.6. In addition, the “logβ[GaHL]+” value in data set [1] ([L] = 1·10^-4 M) was 29.45 (1). Also, the “logβ[GaL]” value in data set [1] (setting [3]) was 26.58 (4). Besides, in data set [2], the “pFe(III)” value is 24.1.
Take `O=C1CCN(O)C(=O)CCNC(=O)CCN(O)C(=O)CCNC(=O)CCN(O)C(=O)CCN1` [FOX 2-2]: in data set [1], the “pGa(III)” value is 21.4. The “logβ[GaHL]+” value in data set [1] ([L] = 1·10^-4 M) is reported as 28.48 (4). Also, the “logβ[GaL]” value in data set [1] (setting [3]) is on record as 26.52 (5). Besides, the “pFe(III)” value in data set [2] is listed as 21.5.
